Experimental findings from PubChem BioAssay AID256 (DTP/NCI, 2004) are described below.

Values joined by “and” are separate entries in the source; they are usually repeats but may differ in a detail not shown here. Identical values can stand only once. Toxic doses and inconclusive results are not listed.

This assay deals with CD2F1 mice, L1210 leukemia ip, survival T/C. Briefly: NCI In Vivo Anticancer Drug Screen. Data for tumor model L1210 Leukemia (intraperitoneal) in CD2F1 (CDF1) mice. To be noted: higher = longer survival. A digest of the protocol:
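Transplantable tumor in mice; compound-treated vs vehicle-treated groups. Read-out = treated/control ratio of the measured endpoint.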

[1] abbreviates: endpoint: mean survival time, dose: 100.0 mg/kg/injection, schedule: Q01DX001 (ip), vehicle: saline with Tween-80.
The mark [2] stands for this setting: endpoint: mean survival time, dose: 100.0 mg/kg/injection, schedule: Q04DX002 (ip), vehicle: saline with Tween-80.
Where [3] appears, read: endpoint: mean survival time, dose: 100.0 mg/kg/injection, schedule: Q01DX001 (ip), vehicle: saline.
Setting [4] is: endpoint: mean survival time, dose: 200.0 mg/kg/injection, schedule: Q01DX001 (ip), vehicle: saline.
The mark [5] stands for this setting: endpoint: mean survival time, dose: 400.0 mg/kg/injection, schedule: Q01DX001 (ip), vehicle: saline.

Consider `CC1(C)OCC(CO)(Nc2nc(N3CC3)nc(N3CC3)n2)CO1`, for which the T/C is 111 % of control (endpoint: mean survival time, dose: 0.31 mg/kg/injection, schedule: Q01DX009 (ip), vehicle: saline); 117 % of control and 112 % of control (endpoint: mean survival time, dose: 0.62 mg/kg/injection, schedule: Q01DX009 (ip), vehicle: saline); 194 % of control (endpoint: mean survival time, dose: 1.25 mg/kg/injection, schedule: Q01DX009 (ip), vehicle: saline); 186 % of control and 221 % of control and 104 % of control (endpoint: mean survival time, dose: 2.5 mg/kg/injection, schedule: Q01DX009 (ip), vehicle: saline).
As to `O=CC(NC(=O)OCc1ccccc1)C(O)C(O)C(O)CO` (stereo unspecified), the T/C is 105 % of control (endpoint: mean survival time, dose: 25.0 mg/kg/injection, schedule: Q01DX001 (ip), vehicle: saline with Tween-80); 102 % of control (endpoint: mean survival time, dose: 50.0 mg/kg/injection, schedule: Q01DX001 (ip), vehicle: saline with Tween-80); 102 % of control under setting [1].
Regarding `O=C1CCC(C(=O)O)=NN1`, the T/C by setting is: (endpoint: mean survival time, dose: 12.5 mg/kg/injection, schedule: Q01DX009 (ip), vehicle: water) 96 % of control; (endpoint: mean survival time, dose: 25.0 mg/kg/injection, schedule: Q01DX009 (ip), vehicle: water) 101 % of control; (endpoint: mean survival time, dose: 50.0 mg/kg/injection, schedule: Q01DX009 (ip), vehicle: water) 93 % of control; (endpoint: mean survival time, dose: 100.0 mg/kg/injection, schedule: Q01DX009 (ip), vehicle: water) 93 % of control; (endpoint: mean survival time, dose: 200.0 mg/kg/injection, schedule: Q01DX009 (ip), vehicle: water) 90 % of control.
For `CCCCCCC(=O)CCCCCCCCCCCCC(=O)OC`, the T/C reads like this: (endpoint: mean survival time, dose: 100.0 mg/kg/injection, schedule: Q04DX003 (ip), vehicle: saline with Tween-80) 95 % of control; (endpoint: mean survival time, dose: 200.0 mg/kg/injection, schedule: Q04DX003 (ip), vehicle: saline with Tween-80) 97 % of control; (endpoint: mean survival time, dose: 400.0 mg/kg/injection, schedule: Q04DX003 (ip), vehicle: saline with Tween-80) 93 % of control.
Regarding `CN(C)c1ccc(C(=O)CCN2CC=C(c3ccccc3)CC2)cc1`, the T/C under setting [2] was 102 % of control.
In the case of `COC(=O)Nc1ccc(C)cc1[N+](=O)[O-]`, the T/C is 106 % of control (endpoint: mean survival time, dose: 100.0 mg/kg/injection, schedule: Q04DX003 (ip), vehicle: other); 106 % of control (endpoint: mean survival time, dose: 200.0 mg/kg/injection, schedule: Q04DX003 (ip), vehicle: other); 109 % of control (endpoint: mean survival time, dose: 400.0 mg/kg/injection, schedule: Q04DX003 (ip), vehicle: other).
For `CCCCCCCC(=O)N1C(=O)CCC1C(=O)O` (stereo unspecified), the T/C runs as follows: (endpoint: mean survival time, dose: 100.0 mg/kg/injection, schedule: Q01DX001 (ip), vehicle: Klucel (hydroxypropylcellulose) (HPC)) 100 % of control; (endpoint: mean survival time, dose: 200.0 mg/kg/injection, schedule: Q01DX001 (ip), vehicle: Klucel (hydroxypropylcellulose) (HPC)) 100 % of control; (endpoint: mean survival time, dose: 400.0 mg/kg/injection, schedule: Q01DX001 (ip), vehicle: Klucel (hydroxypropylcellulose) (HPC)) 104 % of control.
For `Nc1cccc(OCc2nc(N)nc(N)c2-c2ccc(Cl)cc2)c1`, the T/C (endpoint: mean survival time, dose: 37.5 mg/kg/injection, schedule: Q01DX001 (ip), vehicle: saline) is 96 % of control; the T/C (endpoint: mean survival time, dose: 75.0 mg/kg/injection, schedule: Q01DX001 (ip), vehicle: saline) is 100 % of control; the T/C (endpoint: mean survival time, dose: 150.0 mg/kg/injection, schedule: Q01DX001 (ip), vehicle: saline) is 91 % of control.
As for `O=P(N1CCCCCC1)(N1CCCCCC1)N1CCCCCC1.O=[N+]([O-])O.O=[N+]([O-])O.[O]=[U]=[O]`, the T/C (endpoint: mean survival time, dose: 6.25 mg/kg/injection, schedule: Q04DX003 (ip), vehicle: Klucel (hydroxypropylcellulose) (HPC)) is 109 % of control.
As for `O=C(Nc1ccc([N+](=O)[O-])cc1)OC1CCS(=O)(=O)C1` (stereo unspecified), the T/C by setting is: (endpoint: mean survival time, dose: 75.0 mg/kg/injection, schedule: Q04DX003 (ip), vehicle: saline) 102 % of control; (endpoint: mean survival time, dose: 150.0 mg/kg/injection, schedule: Q04DX003 (ip), vehicle: saline) 98 % of control; (endpoint: mean survival time, dose: 300.0 mg/kg/injection, schedule: Q04DX003 (ip), vehicle: saline) 101 % of control.
With `O=C(O)C(Br)CC(Br)C(=O)O` (stereo unspecified), the T/C was 93 % of control (endpoint: mean survival time, dose: 50.0 mg/kg/injection, schedule: Q01DX009 (ip), vehicle: saline) and 93 % of control (endpoint: mean survival time, dose: 100.0 mg/kg/injection, schedule: Q01DX009 (ip), vehicle: saline).
As for `O=C(NNCN1C(=O)c2ccccc2C1=O)c1ccccc1`, the T/C is, setting by setting: under setting [3], 98 % of control; (endpoint: mean survival time, dose: 100.0 mg/kg/injection, schedule: Q04DX003 (ip), vehicle: saline) 100 % of control; under setting [4], 104 % of control; (endpoint: mean survival time, dose: 200.0 mg/kg/injection, schedule: Q04DX003 (ip), vehicle: saline) 100 % of control; under setting [5], 100 % of control; (endpoint: mean survival time, dose: 400.0 mg/kg/injection, schedule: Q04DX003 (ip), vehicle: saline) 103 % of control.
For `O=P(N1CCOCC1)(N1CC1)N1CC1`, the T/C (endpoint: mean survival time, dose: 1.56 mg/kg/injection, schedule: Q01DX009 (ip), vehicle: saline) was 103 % of control; the T/C (endpoint: mean survival time, dose: 3.12 mg/kg/injection, schedule: Q01DX009 (ip), vehicle: saline) was 111 % of control; the T/C (endpoint: mean survival time, dose: 12.5 mg/kg/injection, schedule: Q01DX009 (ip), vehicle: saline) is 180 % of control.
For `Nc1nc(-c2ccccc2)nc2[nH]ncc12`, the T/C runs as follows: under setting [1], 95 % of control; (endpoint: mean survival time, dose: 200.0 mg/kg/injection, schedule: Q01DX001 (ip), vehicle: saline with Tween-80) 95 % of control; (endpoint: mean survival time, dose: 400.0 mg/kg/injection, schedule: Q01DX001 (ip), vehicle: saline with Tween-80) 89 % of control.
Turning to `C=C1C(=O)OC2/C=C(\CO)CC/C=C(\CO)CC(OC(=O)C(C)C)C12` (stereo unspecified), the T/C reads like this: (endpoint: mean survival time, dose: 3.75 mg/kg/injection, schedule: Q01DX009 (ip), vehicle: Klucel (hydroxypropylcellulose) (HPC)) 100 % of control; (endpoint: mean survival time, dose: 7.5 mg/kg/injection, schedule: Q01DX009 (ip), vehicle: Klucel (hydroxypropylcellulose) (HPC)) 88 % of control; (endpoint: mean survival time, dose: 15.0 mg/kg/injection, schedule: Q01DX009 (ip), vehicle: Klucel (hydroxypropylcellulose) (HPC)) 97 % of control; (endpoint: mean survival time, dose: 30.0 mg/kg/injection, schedule: Q01DX009 (ip), vehicle: Klucel (hydroxypropylcellulose) (HPC)) 105 % of control.
Consider `Cc1[nH]c(=S)[nH]c(=O)c1CCS`, for which the T/C was 104 % of control under setting [3], 101 % of control under setting [4] and 98 % of control under setting [5].
Take `O=CC(O)CO` (stereo unspecified): the T/C is 109 % of control (endpoint: median survival time, dose: 129.6 mg/kg/injection, schedule: Q ##X015 (sc), vehicle: saline); 112 % of control (endpoint: median survival time, dose: 129.6 mg/kg/injection, schedule: Q## X015 (sc), vehicle: saline); 108 % of control (endpoint: median survival time, dose: 216.0 mg/kg/injection, schedule: Q ##X015 (sc), vehicle: saline); 112 % of control (endpoint: median survival time, dose: 216.0 mg/kg/injection, schedule: Q## X015 (sc), vehicle: saline); 119 % of control (endpoint: median survival time, dose: 360.0 mg/kg/injection, schedule: Q ##X015 (sc), vehicle: saline); 118 % of control (endpoint: median survival time, dose: 360.0 mg/kg/injection, schedule: Q## X015 (sc), vehicle: saline). In addition, the T/C was 110 % of control (endpoint: median survival time, dose: 600.0 mg/kg/injection, schedule: Q ##X015 (sc), vehicle: saline) and 112 % of control (endpoint: median survival time, dose: 600.0 mg/kg/injection, schedule: Q## X015 (sc), vehicle: saline).
Regarding `Cc1nc(-c2cccc(Cl)c2)oc1-c1ccccc1`, the T/C was 115 % of control under setting [2] and 121 % of control (endpoint: mean survival time, dose: 200.0 mg/kg/injection, schedule: Q04DX002 (ip), vehicle: saline with Tween-80).
With `Nc1nc2c(ncn2-c2ccc(OCCCNC(=O)c3cccc(S(=O)(=O)F)c3)cc2)c(=O)[nH]1`, the T/C was 92 % of control (endpoint: mean survival time, dose: 75.0 mg/kg/injection, schedule: Q01DX001 (ip), vehicle: saline with Tween-80); 103 % of control (endpoint: mean survival time, dose: 150.0 mg/kg/injection, schedule: Q01DX001 (ip), vehicle: saline with Tween-80); 101 % of control (endpoint: mean survival time, dose: 300.0 mg/kg/injection, schedule: Q01DX001 (ip), vehicle: saline with Tween-80).
Take `Nc1cccc2c1C(=O)c1cccc(Cl)c1C2=O`: the T/C runs as follows: (endpoint: mean survival time, dose: 100.0 mg/kg/injection, schedule: Q01DX009 (ip), vehicle: saline with Tween-80) 95 % of control; (endpoint: mean survival time, dose: 200.0 mg/kg/injection, schedule: Q01DX009 (ip), vehicle: saline with Tween-80) 106 % of control; (endpoint: mean survival time, dose: 400.0 mg/kg/injection, schedule: Q01DX009 (ip), vehicle: saline with Tween-80) 109 % of control.
